{"source": "paper PMC7526454", "about": "(JCI Insight, 2020)", "key": {"human serum albumin": {"molecular_target": "T1, human serum albumin (Homo sapiens, UniProt P02768)", "T1 construct": "For assays containing albumin from human serum; purchased MilliporeSigma A3782; host or cells: human serum", "T1 sequence (P02768 25-609)": "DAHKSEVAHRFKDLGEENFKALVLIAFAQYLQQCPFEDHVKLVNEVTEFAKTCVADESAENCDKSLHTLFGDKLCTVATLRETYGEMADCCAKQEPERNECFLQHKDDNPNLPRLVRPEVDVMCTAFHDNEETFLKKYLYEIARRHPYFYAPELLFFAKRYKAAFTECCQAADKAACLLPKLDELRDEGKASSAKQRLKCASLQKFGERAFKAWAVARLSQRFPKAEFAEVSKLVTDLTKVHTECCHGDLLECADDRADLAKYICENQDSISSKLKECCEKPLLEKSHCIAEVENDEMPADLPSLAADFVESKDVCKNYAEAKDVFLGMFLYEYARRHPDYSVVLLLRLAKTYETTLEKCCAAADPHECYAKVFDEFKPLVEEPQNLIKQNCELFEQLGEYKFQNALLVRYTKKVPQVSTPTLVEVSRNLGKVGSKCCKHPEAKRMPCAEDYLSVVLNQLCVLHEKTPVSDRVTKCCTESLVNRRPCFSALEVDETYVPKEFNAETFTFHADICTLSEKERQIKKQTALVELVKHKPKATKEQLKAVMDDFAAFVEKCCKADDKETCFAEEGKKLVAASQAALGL", "assay": "Ligand affinity for albumin by albumin-shift cAMP assays (Schild regression)", "assay_type": "in vitro ADME", "details": "at 640 μM albumin, calculated from KA", "experimental": "Clonal HEK293 cells stably expressing either untagged human GIPR or human GLP-1R at various levels of receptor density were used for measurement of cAMP accumulation using the Gs Dynamic Assay and homogenous time-resolved fluorescence (62AM4PEJ, PerkinElmer). Corning 3570 white microtiter plates were used to collect 10 μL assay medium (DMEM, 31053, [Thermo Fisher Scientific], 2 mM Glutamax [35050, Thermo Fisher Scientific], 20 mM HEPES, 0.1% w/v bovine casein [4765, MilliporeSigma], and 250 μM isobutylmethylxanthine [IBMX] phosphodiesterase inhibitor) from a Multidrop Combi dispenser (Thermo Fisher Scientific). […] Vials of assay-ready cells were rapidly thawed from cryopreservation on the day of the assay. […] Time-resolved fluorescence was quantitated with a Pherastar FSX multilabel reader (BMG Labtech). Fluorescence data were analyzed by the ratio method, calibrated to external standards in a parallel processed plate, and reported as percent activation compared with vehicle minimum and native peptide maximum control wells. […]\nMethods to quantify and predict the effect of albumin binding on biological activity in enzyme assays, receptor binding assays, and cell-based assays exist, but they are not currently widely employed ([57]–[59]). The general approach involves performing a bioassay in an albumin-free system and quantifying the effect of systematic titrations of albumin into the system. […]"}, "[1]": {"details": "steady state plasma total concentration, cited from earlier work"}}, "note": "Like-named read-outs stand apart in the source and are kept apart here.", "data": [{"smiles": "CC[C@H](C)[C@H](NC(=O)[C@H](Cc1ccccc1)NC(=O)[C@H](CCC(=O)O)NC(=O)[C@H](CCCCNC(=O)COCCOCCNC(=O)COCCOCCNC(=O)CC[C@H](NC(=O)CCCCCCCCCCCCCCCCC(=O)O)C(=O)O)NC(=O)[C@H](C)NC(=O)[C@H](C)NC(=O)[C@H](CCC(N)=O)NC(=O)CNC(=O)[C@H](CCC(=O)O)NC(=O)[C@H](CC(C)C)NC(=O)[C@H](Cc1ccc(O)cc1)NC(=O)[C@H](CO)NC(=O)[C@H](CO)NC(=O)[C@@H](NC(=O)[C@H](CC(=O)O)NC(=O)[C@H](CO)NC(=O)[C@@H](NC(=O)[C@H](Cc1ccccc1)NC(=O)[C@@H](NC(=O)CNC(=O)[C@H](CCC(=O)O)NC(=O)C(C)(C)NC(=O)[C@@H](N)Cc1cnc[nH]1)[C@@H](C)O)[C@@H](C)O)C(C)C)C(=O)N[C@@H](C)C(=O)N[C@@H](Cc1c[nH]c2ccccc12)C(=O)N[C@@H](CC(C)C)C(=O)N[C@H](C(=O)N[C@@H](CCCNC(=N)N)C(=O)NCC(=O)N[C@@H](CCCNC(=N)N)C(=O)NCC(=O)O)C(C)C", "note": "[Semaglutide, semaglutide]", "values": [{"measurement": "predicted unbound fraction", "setting": "human serum albumin", "value": 0.00072}, {"measurement": "Css (total)", "setting": "[1]; semaglutide 0.5 mg clinical dose", "value": 15, "unit": "nM"}, {"measurement": "Css (total)", "setting": "[1]; semaglutide 1 mg clinical dose", "value": 30, "unit": "nM"}]}]}
